Like-named read-outs stand apart in the source and are kept apart here.
What was measured:
ABL1-phosphorylated = target: T1, ABL1-phosphorylated (Homo sapiens, UniProt P00519); assay: KINOMEscan ScanTK; type: binding
T1 construct: purchased Eurofins DiscoverX KINOMEscan (scanTK)

[1] = target: T2, ABL1(H396P)-phosphorylated (Homo sapiens, UniProt P00519, H396P); assay: KINOMEscan ScanTK; type: binding
T2 construct: purchased Eurofins DiscoverX KINOMEscan (scanTK)

SYK = target: T3, SYK (Homo sapiens, UniProt P43405); assay: KINOMEscan ScanTK; type: binding
T3 construct: purchased Eurofins DiscoverX KINOMEscan (scanTK)

TMD8 cells = assay: Annexin V/propidium iodide staining (apoptosis, viability); type: cell-based, human; details: 72 h
Method: We tested the effects of compounds in TMD8 cells, derived from an activated B-cell DLBCL. These cells have constitutive signaling via the BCR and additionally carry MYD88^L265P and CD79B mutations which give rise to My-T-BCR complex. […] Apoptosis was quantified after exposure of cells to compounds for 72 h using annexin V/PI staining and flow cytometry (Figure 3E, Figure S4).
Cells were washed in phosphate-buffered saline and resuspended in 300 μL of annexin V staining buffer (10 mM HEPES HCl (pH 7.4), 140 mM NaCl, 2.5 mM CaCl2) supplemented with 2.5 μg/mL fluorescein isothiocyanate-labeled annexin V (kind gift from Dr Patrick Duriez, Protein Core Facility, University of Southampton) and 12.5 μM propidium iodide (Invitrogen). Cells were analyzed by flow cytometry (Canto II system, BD Biosciences) and the percentage of viable cells was determined by calculating the proportion of Annexin V-/PI-cells as a percentage of all cells (results for untreated cells at 72 h set to 100%).

EPHA8 = target: T4, EPHA8 (Homo sapiens, UniProt P29322); assay: KINOMEscan ScanTK; type: binding
T4 construct: purchased Eurofins DiscoverX KINOMEscan (scanTK)
T4 sequence (P29322 28-1005): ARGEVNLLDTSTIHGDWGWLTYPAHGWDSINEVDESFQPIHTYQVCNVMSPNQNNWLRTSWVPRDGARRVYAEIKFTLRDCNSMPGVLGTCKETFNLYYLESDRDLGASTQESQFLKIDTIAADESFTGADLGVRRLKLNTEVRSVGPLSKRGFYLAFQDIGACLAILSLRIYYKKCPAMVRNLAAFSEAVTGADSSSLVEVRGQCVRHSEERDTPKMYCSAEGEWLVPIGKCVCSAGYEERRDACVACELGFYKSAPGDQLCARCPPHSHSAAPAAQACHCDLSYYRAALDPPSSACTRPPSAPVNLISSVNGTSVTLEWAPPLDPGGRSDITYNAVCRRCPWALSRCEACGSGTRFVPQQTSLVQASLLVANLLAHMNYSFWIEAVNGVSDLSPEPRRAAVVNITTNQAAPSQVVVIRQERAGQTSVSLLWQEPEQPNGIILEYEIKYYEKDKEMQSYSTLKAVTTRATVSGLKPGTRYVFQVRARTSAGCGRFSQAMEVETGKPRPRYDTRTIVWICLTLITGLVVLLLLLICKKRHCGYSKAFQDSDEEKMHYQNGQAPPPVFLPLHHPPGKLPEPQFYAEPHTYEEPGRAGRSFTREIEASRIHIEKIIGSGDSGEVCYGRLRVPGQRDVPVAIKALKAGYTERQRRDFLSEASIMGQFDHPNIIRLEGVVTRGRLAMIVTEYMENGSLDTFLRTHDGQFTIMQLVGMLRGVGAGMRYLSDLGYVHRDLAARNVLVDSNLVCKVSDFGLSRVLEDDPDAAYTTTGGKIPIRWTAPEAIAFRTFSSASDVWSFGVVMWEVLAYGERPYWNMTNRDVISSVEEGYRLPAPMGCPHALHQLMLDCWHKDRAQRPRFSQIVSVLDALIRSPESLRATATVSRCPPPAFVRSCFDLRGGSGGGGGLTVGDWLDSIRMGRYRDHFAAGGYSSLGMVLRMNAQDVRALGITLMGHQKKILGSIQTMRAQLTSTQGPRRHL

[2] = target: T5, JAK2(JH1domain-catalytic) (Homo sapiens, UniProt O60674); assay: KINOMEscan ScanTK; type: binding
T5 construct: JAK2(JH1domain-catalytic); purchased Eurofins DiscoverX KINOMEscan (scanTK)
T5 sequence (O60674 849-1132 limits assumed): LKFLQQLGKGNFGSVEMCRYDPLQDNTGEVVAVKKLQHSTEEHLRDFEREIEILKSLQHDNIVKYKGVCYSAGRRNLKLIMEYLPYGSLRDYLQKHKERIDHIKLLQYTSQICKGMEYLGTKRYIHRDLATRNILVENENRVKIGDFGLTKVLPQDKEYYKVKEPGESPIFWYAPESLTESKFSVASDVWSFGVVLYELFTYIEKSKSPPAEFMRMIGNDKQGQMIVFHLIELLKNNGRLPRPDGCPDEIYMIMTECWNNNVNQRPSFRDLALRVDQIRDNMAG

FLT1 = target: T6, FLT1 (Homo sapiens, UniProt P17948); assay: KINOMEscan ScanTK; type: binding
T6 construct: purchased Eurofins DiscoverX KINOMEscan (scanTK)
T6 sequence (P17948 27-1338): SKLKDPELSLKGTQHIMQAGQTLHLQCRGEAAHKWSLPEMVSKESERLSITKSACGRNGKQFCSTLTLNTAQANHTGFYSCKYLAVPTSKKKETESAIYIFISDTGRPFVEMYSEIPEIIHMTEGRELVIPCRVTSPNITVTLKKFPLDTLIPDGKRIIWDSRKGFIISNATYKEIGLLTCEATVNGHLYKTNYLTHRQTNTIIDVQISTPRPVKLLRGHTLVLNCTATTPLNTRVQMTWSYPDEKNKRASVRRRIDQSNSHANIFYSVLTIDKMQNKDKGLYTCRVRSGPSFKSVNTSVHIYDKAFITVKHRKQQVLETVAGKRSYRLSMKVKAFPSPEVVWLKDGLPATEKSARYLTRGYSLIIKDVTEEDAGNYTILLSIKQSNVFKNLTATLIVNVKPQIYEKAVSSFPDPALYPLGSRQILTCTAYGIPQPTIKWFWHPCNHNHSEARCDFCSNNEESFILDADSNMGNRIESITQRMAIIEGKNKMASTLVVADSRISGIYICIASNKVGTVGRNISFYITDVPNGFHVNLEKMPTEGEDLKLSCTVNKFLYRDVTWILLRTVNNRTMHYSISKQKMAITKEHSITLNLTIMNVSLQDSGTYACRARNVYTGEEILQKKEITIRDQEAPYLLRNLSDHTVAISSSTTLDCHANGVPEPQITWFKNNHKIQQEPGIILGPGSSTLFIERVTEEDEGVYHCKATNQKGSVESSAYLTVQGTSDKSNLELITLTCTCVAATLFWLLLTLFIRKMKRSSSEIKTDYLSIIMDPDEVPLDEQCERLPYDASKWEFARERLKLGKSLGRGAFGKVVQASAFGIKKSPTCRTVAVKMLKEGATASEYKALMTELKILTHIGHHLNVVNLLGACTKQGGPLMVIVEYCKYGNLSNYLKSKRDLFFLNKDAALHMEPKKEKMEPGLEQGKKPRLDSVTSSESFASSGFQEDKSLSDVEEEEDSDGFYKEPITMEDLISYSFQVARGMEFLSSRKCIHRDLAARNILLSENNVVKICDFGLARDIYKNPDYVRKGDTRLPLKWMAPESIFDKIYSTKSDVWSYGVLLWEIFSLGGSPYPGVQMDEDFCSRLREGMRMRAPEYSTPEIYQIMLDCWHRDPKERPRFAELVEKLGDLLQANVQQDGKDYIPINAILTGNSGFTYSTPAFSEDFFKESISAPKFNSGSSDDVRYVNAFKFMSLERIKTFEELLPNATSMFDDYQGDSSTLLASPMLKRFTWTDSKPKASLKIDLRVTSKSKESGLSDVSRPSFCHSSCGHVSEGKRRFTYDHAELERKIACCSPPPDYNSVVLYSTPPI

KIT(L576P) = target: T7, KIT(L576P) (Homo sapiens, UniProt P10721, L576P); assay: KINOMEscan ScanTK; type: binding
T7 construct: purchased Eurofins DiscoverX KINOMEscan (scanTK)
T7 sequence (P10721 26-976 L576P): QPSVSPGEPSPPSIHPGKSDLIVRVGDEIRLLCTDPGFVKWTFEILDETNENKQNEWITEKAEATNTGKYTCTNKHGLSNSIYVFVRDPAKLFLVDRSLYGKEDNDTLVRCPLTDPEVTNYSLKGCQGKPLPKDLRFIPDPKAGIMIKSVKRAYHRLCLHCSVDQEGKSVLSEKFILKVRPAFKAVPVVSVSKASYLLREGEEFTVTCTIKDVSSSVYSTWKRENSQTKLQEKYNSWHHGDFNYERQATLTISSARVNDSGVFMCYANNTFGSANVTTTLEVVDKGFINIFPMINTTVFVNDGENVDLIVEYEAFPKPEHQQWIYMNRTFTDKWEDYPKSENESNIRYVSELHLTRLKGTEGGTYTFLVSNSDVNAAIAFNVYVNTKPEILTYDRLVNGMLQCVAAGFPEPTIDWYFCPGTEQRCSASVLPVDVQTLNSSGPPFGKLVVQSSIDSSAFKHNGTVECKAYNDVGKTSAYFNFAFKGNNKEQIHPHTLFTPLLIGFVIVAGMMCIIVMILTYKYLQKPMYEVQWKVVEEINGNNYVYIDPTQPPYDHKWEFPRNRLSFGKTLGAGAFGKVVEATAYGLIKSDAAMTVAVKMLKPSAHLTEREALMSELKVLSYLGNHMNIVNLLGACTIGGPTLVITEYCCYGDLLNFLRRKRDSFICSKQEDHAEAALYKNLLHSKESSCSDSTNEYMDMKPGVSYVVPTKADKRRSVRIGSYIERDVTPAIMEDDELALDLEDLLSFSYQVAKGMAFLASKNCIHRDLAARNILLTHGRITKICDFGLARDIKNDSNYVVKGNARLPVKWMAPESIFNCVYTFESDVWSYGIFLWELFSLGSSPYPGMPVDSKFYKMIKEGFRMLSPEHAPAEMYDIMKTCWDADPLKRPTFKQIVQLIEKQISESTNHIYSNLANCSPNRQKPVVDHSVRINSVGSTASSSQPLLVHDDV

HCK = target: T8, HCK (Homo sapiens, UniProt P08631); assay: KINOMEscan ScanTK; type: binding
T8 construct: purchased Eurofins DiscoverX KINOMEscan (scanTK)
T8 sequence (P08631 whole entry): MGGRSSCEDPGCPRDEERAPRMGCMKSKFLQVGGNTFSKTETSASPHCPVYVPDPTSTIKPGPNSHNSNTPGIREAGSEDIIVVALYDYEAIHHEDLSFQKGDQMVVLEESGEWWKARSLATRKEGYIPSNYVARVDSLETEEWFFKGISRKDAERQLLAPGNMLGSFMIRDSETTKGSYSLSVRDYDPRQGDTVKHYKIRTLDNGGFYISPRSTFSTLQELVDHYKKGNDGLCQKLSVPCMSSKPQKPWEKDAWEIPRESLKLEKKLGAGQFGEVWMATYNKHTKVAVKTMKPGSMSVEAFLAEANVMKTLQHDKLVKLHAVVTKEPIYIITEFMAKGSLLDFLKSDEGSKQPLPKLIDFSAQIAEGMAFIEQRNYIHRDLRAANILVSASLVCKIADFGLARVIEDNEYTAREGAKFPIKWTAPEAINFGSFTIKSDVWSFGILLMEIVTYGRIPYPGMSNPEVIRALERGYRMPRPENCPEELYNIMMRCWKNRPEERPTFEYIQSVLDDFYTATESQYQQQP

FGFR3 = target: T9, FGFR3 (Homo sapiens, UniProt P22607); assay: KINOMEscan ScanTK; type: binding
T9 construct: purchased Eurofins DiscoverX KINOMEscan (scanTK)
T9 sequence (P22607 23-806): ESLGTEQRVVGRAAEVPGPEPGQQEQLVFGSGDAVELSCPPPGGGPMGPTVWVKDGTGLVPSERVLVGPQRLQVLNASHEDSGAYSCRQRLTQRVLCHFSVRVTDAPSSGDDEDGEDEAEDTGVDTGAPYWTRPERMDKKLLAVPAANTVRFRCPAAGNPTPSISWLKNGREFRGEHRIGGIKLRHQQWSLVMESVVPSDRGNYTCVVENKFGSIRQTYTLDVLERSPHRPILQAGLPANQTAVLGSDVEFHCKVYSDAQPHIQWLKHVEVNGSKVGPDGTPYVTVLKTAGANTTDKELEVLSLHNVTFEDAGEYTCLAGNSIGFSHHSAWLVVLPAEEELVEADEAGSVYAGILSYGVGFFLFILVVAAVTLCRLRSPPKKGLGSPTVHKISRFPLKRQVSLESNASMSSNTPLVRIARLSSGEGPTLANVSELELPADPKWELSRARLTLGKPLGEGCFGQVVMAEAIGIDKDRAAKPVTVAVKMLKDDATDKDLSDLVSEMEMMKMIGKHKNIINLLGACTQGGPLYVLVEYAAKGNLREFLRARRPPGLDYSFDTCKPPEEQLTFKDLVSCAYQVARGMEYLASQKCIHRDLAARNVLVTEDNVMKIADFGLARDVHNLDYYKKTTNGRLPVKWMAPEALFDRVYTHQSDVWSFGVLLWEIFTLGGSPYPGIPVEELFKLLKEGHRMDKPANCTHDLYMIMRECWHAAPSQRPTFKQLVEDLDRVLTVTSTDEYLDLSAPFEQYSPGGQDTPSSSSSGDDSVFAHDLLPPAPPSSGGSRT

[3] = target: T10, ABL1(Q252H)-nonphosphorylated (Homo sapiens, UniProt P00519, Q252H); assay: KINOMEscan ScanTK; type: binding
T10 construct: purchased Eurofins DiscoverX KINOMEscan (scanTK)

Compound `CNC(=O)c1cnc(S(C)(=O)=O)nc1N1CCCC(n2nc(-c3ccc(Oc4ccccc4)cc3)c3c(N)ncnc32)C1` (centres unmarked) [Compound 8d, 4-(3-(4-Amino-3-(4-phenoxyphenyl)-1H-pyrazolo[3,4-d]pyrimidin-1-yl)piperidin-1-yl)-N-methyl-2-(methylsulfonyl)pyrimidine-5-carboxamide] has a difference in %Control from compound Ib at 1 µM (ABL1-phosphorylated; @1000nM) of -5%, a remaining binding at 1 µM (ABL1-phosphorylated; @1000nM, read-out: %Control) of 55% and a remaining binding at 1 µM (ABL1-phosphorylated; read-out: %Control @1000nM) of 55%. For the same compound, the %Control difference versus compound Ib at 1 µM ([1]; @1000nM) was -1%, the remaining binding at 1 µM ([1]; @1000nM, read-out: %Control) was 79% and the remaining binding at 1 µM ([1]; read-out: %Control @1000nM) was 79%. For the same compound, the difference in %Control versus compound Ib at 1 µM (SYK; @1000nM) was -2%, the remaining binding at 1 µM (SYK; @1000nM, read-out: %Control) was 89% and the remaining binding at 1 µM (SYK; read-out: %Control @1000nM) was 89%. The “fold lower apoptotic potency than Ibrutinib” value (TMD8 cells) was about 10 fold, the induction of apoptosis (TMD8 cells) was “induced apoptosis” and the difference in %Control versus compound Ib at 1 µM (EPHA8; @1000nM) was 24%. For the same compound, the remaining binding at 1 µM (EPHA8; @1000nM, read-out: %Control) was 93%, the remaining binding at 1 µM (EPHA8; read-out: %Control @1000nM) was 93% and the difference in %Control vs compound Ib at 1 µM ([2]; @1000nM) was -14%. The remaining binding at 1 µM ([2]; @1000nM, read-out: %Control) was 86%, the remaining binding at 1 µM ([2]; read-out: %Control @1000nM) was 86% and the difference in %Control from compound Ib at 1 µM (FLT1; @1000nM) was 28%. For the same compound, the remaining binding at 1 µM (FLT1; @1000nM, read-out: %Control) was 100%, the remaining binding at 1 µM (FLT1; read-out: %Control @1000nM) was 100% and the difference in %Control versus Ib at 1 µM (KIT(L576P); @1000nM, read-out: % difference (compound - Ib %Control)) was 13%. For the same compound, the remaining binding at 1 µM (KIT(L576P); @1000nM, read-out: %Control) was 45%, the remaining binding at 1 µM (KIT(L576P); read-out: %Control @1000nM) was 45% and the difference in %Control from compound Ib at 1 µM (HCK; @1000nM) was 6.8%. The remaining binding at 1 µM (HCK; @1000nM, read-out: %Control) was 12%, the remaining binding at 1 µM (HCK; read-out: %Control @1000nM) was 12% and the difference in %Control versus compound Ib at 1 µM (FGFR3; @1000nM) was 51%. It also gave a remaining binding at 1 µM (FGFR3; @1000nM, read-out: %Control) of 99%, a remaining binding at 1 µM (FGFR3; read-out: %Control @1000nM) of 99% and a difference in %Control versus reference compound Ib at 1 µM ([3]; @1000nM) of 13%. The remaining binding at 1 µM ([3]; @1000nM, read-out: %Control) was 26% and the remaining binding at 1 µM ([3]; read-out: %Control @1000nM) was 26%.

Reference: PMC11345841, “Exploring 2-Sulfonylpyrimidine Warheads as Acrylamide Surrogates for Targeted Covalent Inhibition: A BTK Story” (Journal of Medicinal Chemistry, 2024)
